Test results published in US8557783B2, “Phosphotetrahydropyran compounds for the treatment of wounds and fibrotic disorders” (Pharmaxis Pty Limited, priority 2009, dated 2013).

Tests used:
[1] = molecular target: T1, Cation-Independent Mannose 6-Phosphate Receptor (sCI-MPR) (Bos taurus, UniProt P08169); test: Antagonism of mannose 6-phosphate binding to the CI-M6P receptor (SPR, Biacore); set-up: species or system fetal calf; conditions: mean; SPR at 25° C., sCI-MPR binding to immobilized human β-glucuronidase
T1 construct: Samples of purified sCI-MPR purified from fetal calf serum; from tissue; host or cells: fetal calf serum
T1 sequence (P08169 45-2313 limits assumed): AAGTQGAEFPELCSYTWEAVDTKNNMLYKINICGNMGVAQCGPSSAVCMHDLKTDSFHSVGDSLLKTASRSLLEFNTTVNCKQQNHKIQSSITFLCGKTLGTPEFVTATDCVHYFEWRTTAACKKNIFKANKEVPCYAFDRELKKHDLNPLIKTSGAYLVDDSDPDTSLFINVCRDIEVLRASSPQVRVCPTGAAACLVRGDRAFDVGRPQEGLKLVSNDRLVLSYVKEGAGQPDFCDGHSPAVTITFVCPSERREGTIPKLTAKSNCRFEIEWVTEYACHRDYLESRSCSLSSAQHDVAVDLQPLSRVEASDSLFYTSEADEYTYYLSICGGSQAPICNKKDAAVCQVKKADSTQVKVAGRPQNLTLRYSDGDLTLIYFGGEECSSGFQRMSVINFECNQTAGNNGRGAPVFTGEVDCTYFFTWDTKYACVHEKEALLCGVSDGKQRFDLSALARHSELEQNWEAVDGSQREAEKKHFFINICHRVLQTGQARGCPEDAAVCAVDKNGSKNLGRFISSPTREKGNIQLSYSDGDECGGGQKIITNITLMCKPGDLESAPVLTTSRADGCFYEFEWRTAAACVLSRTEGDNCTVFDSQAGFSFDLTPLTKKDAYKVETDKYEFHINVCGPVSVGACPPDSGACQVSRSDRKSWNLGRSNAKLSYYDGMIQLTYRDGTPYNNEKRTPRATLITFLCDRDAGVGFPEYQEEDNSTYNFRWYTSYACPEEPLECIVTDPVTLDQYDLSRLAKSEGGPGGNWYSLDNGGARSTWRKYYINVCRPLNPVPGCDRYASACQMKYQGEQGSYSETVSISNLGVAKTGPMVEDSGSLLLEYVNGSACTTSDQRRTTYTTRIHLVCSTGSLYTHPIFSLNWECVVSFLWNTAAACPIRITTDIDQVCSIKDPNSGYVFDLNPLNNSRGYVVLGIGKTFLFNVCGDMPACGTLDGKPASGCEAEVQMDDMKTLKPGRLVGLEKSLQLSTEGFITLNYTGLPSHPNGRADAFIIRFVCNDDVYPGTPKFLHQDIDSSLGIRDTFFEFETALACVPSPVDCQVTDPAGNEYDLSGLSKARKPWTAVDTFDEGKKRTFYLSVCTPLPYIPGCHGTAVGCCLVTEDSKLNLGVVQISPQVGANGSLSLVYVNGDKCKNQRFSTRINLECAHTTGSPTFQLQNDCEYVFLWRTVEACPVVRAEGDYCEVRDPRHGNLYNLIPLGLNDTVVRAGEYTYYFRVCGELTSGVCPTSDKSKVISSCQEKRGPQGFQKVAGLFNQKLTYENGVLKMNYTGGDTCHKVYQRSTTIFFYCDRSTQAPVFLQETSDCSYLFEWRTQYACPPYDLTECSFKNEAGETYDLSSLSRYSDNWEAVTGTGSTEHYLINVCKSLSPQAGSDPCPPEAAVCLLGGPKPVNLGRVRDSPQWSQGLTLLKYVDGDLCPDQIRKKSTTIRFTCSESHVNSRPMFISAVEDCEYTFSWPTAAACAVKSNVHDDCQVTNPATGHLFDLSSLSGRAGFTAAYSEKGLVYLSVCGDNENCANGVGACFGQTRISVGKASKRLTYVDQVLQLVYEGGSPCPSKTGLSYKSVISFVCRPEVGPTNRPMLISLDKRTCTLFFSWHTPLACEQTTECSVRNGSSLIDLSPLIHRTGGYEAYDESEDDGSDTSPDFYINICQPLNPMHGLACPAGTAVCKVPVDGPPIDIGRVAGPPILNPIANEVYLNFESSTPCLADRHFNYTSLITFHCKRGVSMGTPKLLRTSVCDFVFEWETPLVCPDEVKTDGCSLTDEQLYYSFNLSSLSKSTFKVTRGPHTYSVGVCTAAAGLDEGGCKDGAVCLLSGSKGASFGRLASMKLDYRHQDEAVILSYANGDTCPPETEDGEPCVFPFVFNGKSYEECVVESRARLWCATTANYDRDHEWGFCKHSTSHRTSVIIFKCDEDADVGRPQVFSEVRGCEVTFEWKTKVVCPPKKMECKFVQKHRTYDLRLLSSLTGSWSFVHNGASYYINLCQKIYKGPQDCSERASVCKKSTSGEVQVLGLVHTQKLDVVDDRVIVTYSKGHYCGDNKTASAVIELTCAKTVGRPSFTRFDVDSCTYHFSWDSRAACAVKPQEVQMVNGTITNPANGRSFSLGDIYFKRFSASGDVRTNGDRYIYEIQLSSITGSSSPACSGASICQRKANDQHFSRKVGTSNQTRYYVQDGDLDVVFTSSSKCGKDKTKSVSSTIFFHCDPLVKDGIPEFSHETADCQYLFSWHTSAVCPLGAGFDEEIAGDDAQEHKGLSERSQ
Experimental: All surface plasmon resonance (SPR) measurements were performed at 25° C. using a Biacore 3000 instrument (BIAcore, Piscataway, N.J.). CM5 research grade sensor chips, surfactant P20 and amine coupling kits were also obtained from BIAcore. Purified human β-glucuronidase was immobilized on CM5 sensor chips following activation of the surface using 1-ethyl-3-(3-dimethylaminopropyl)carbodiimide and N-hydroxysuccinimide as recommended by the manufacturer. Briefly, the proteins were injected onto the activated dextran surface at a concentration of 10-20 μg/mL in 10 mM sodium acetate buffer, pH 4.5 using 10 mM HEPES pH 7.5, 150 mM NaCl and 0.005% (v/v) P20 as the running buffer. After coupling, unreacted N-hydroxysuccinimide ester groups were blocked with ethanolamine. The reference surface was treated in the same way except that protein was omitted. […] The response at equilibrium for each concentration of protein was determined by averaging the response over a 10 sec period within the steady state region of the sensorgram using the BIAevaluation software package (version 4.0.1). […]

[2] = tested on: thioglycolate-induced leukocyte migration in the peritoneal cavity, C57BI/6 mice; test: Thioglycolate-induced peritonitis in the mouse; type: in vivo; conditions: for peritoneal total cell number in untreated mice compared with treated mice: −15 min, 3 h
Experimental: Germ-free male C57BI/6 mice, weighing in the target range of 21.30±0.39 g (6-7 week-old) were anaesthetised with halothane and then received by intravenous route (iv) increasing doses of the phosphotetrahydropyran test compound (5 or 15 mg/kg, −15 min), dexamethasone (1 mg/kg, −60 min) or the respective vehicle (saline 0.9%, pH 7.4). Peritoneal inflammation was induced by i.p. injection of Brewer's thioglycolate. Thioglycolate was prepared freshly (3%, w/v) in sterile saline, and 1.5 mL was injected into the intraperitoneum cavity (ip). Following 3 h treatment, animals were killed (under anesthesia) by cervical dislocation, and cells were recovered by peritoneal lavage using 5 mL of ice-cold PBS. The lavage contents were immediately stored on ice. Peritoneal exudate cells (PEC) were further diluted in 5 mL of ice-cold PBS. The total cell count was determined on a Neubauer chamber with Turk solution, whereas the differential cell counts were conducted on cytospin preparations. Peritoneal lavage was carefully confirmed to be negative for erythrocytes by microscopy to exclude the possibility that leukocyte accumulation in the peritoneal cavity was due to microbleeding, which may occur during animal preparation.
Data are expressed as Mean (±SEM) from n individual animals. Statistical analysis of data was carried out using Software Graphpad prism v4. Comparative data were analysed using ANOVA followed by Dunnett's post test and ANOVA (unpaired Student's T tests). Statistical P values less than 0.05 were taken as significant.
The results of polymorphonuclear (PMN) (A), mononuclear (MN) recruitment (B) and total cells (C) are shown as number of cells per cavity. The results are from a representative experiment with 11 mice. Significant p values for each time point are shown (Dunnett's post test and unpaired T-test).

[3] = tested on: LPS-induced lung inflammation, C57BI/6 mice; test: Acute LPS-induced lung inflammation in the mouse; type: in vivo; conditions: for total number of inflammatory cells in BAL fluid versus LPS control group: 15 min prior to LPS, 3 hours after LPS
Experimental: Age-matched germ-free male C57BI/6 mice (25.30±0.39 g; 6-7 week-old) were transiently anaesthetized with a mixture of isoflurane and oxygen. The vehicle-treated group received intravenous injection (iv) of saline 15 min prior to intra-tracheal instillation (i.t.) of lipopolysaccharide (LPS, 3 mg/kg). Another set of animals received i.v. injection of dexamethasone at 1 mg/kg or 2.5 mg/kg 1 hour prior to LPS. The phosphotetrahydropyran test compound was administered to the animals at 5, 15 and 30 mg/kg (iv) 15 min prior to LPS instillation. A separate group of mice was used as sham (saline/PBS) and was treated with i.v. injection of saline and i.t. injection of PBS (phosphate buffered saline).
Three hours after the LPS administration, animals were anaesthetized with urethane (25%, […] body weight). A blood sample was collected by cardiac puncture (≅1 mL) and the animals were sacrificed by cervical dislocation. The trachea was cannulated and the lungs were lavaged with 2 mL of PBS containing EDTA (1 mM). The lavaged fluid was harvested by gentle injections and aspirations four times with 0.5 mL each, and centrifuged. The total cell count was determined on a fresh fluid specimen with Turk solution using a Neubauer chamber. Differential cell counts were determined using Cytospin technique. Aliquots of the bronchoalveolar lavage (BAL) supernatants were stored without further treatment at −80° C.
Slices of each pulmonary lobe were immediately removed from the animal, weighed and either frozen in liquid nitrogen for myeloperoxidase (MPO) assay or placed in the oven for lung oedema evaluation. Determination of MPO activity was used as an index of leukocyte accumulation, where one unit of MPO activity was defined as that degrading 1 μmol hydrogen peroxide/min at 25° C. by the formula MPO (U/g)=Vmax/s×60/0.0113/0.5. Data were presented as MPO activity expressed as U/g wet tissue. To determine pulmonary oedema, the left pulmonary lobes were removed, weighed and dried at 60° C. for 48 h for wet to dry weight ratio measurements.

[4] = Determination of bioavailability in the rat; type: in vivo; conditions: oral, rats, gavage 10 mg/kg versus intravenously 1 mg/kg, plasma LC-MS
Experimental: The phosphotetrahydropyran test compound (Formula 1; n=1 and R=2,4-dimethylphenyl) was administered to rats by gavage at 10 mg/kg or intravenously at 1 mg/kg). Blood samples were taken at 15 and 30 min and at 1, 2, 3, 4, 8, 12 and 24 hours. Plasma samples were prepared by the addition of 50% acetonitrile/water (20 μL). Protein precipitation was carried out by the addition of trichloroacetic acid (20% in water, 40 μL), vortexing (20 s) and after storing at 4° C. for 60 minutes, centrifugation (10,000 rpm) in a microcentrifuge for 5 min. The supernatant was subsequently separated and 25 μL injected directly onto the column for LC-MS analysis.

[5] = tested on: New Zealand White rabbits, filtering bleb; test: Rabbit model of experimental glaucoma filtering surgery; type: in vivo; conditions: intraoperative sponge 3 minutes; PXS-25 40 mg/mL, MMC 0.4 mg/mL
Experimental: New Zealand White rabbits (18) were subjected to a modified glaucoma filtering surgery in the left eye. The animals received either intraoperative PXS-25 at a concentration of 40 mg/mL (Group 1), intraoperative Mitomycin C (MMC) at a concentration of 0.4 mg/mL (Group 2), or intraoperative test compound and Mitomycin C (MMC) (Group 3).
Filtration surgery was performed on the left eye only. MMC, test compound (Formula 1) or the combination were delivered with a large sponge measuring 8×10 mm (dry size) cut from a Weck-Cel prior to cutting the flap and sclerostomy. The sponge pieces were placed between the conjunctiva and sclera over the determined filtration site for 3 minutes. The area was then thoroughly irrigated with 30 mL of physiologic saline. The animals were reviewed on the first day after surgery, and then weekly until bleb failure. The study was terminated after the 8 week. Fluorescein tracer studies was performed as follows. Sodium fluorescein was injected into the anterior chamber and the drainage pathway using a slit lamp based digital video camera system was recorded. The animals were sacrificed and tissue sections were prepared for immunohistochemically staining for signs of scarring and inflammation.

Structure (SMILES)	Ki [1]	peritoneal total cell number in untreated mice compared with treated mice ([2]; 5 mg/kg iv)	peritoneal total cell number in untreated mice compared with treated mice ([2]; 15 mg/kg iv)	anti-inflammatory actions (leukocyte migration into the peritoneal cavity) ([2]; iv pre-treatment, 3 h after thioglycolate)	total number of inflammatory cells in BAL fluid versus LPS control group ([3]; 5 mg/kg iv)	total number of inflammatory cells in BAL fluid versus LPS control group ([3]; 15 mg/kg iv)	total number of inflammatory cells in BAL fluid versus LPS control group ([3]; 30 mg/kg iv)	decrease of neutrophils number in BAL fluid compared to vehicle (saline)-control group ([3]; iv pre-treatment 15 min prior to LPS, P<0.05)	bioavailability [4]	tissue surrounding the site of surgical intervention / bleb [5]
Cc1ccc(COC2O[C@H](CCP(=O)(O)O)[C@@H](O)[C@H](O)[C@@H]2O)c(C)c1 (some centres unmarked) [Formula 1; n=1 and R=2,4-dimethylphenyl]	7.9 µM	markedly higher	markedly higher	Dose-dependent anti-inflammatory actions	not significantly different	significant inhibition	not significantly different	86.7%	7.7%	
CO[C@@]12[C@H](COC(N)=O)C3=C(C(=O)C(C)=C(N)C3=O)N1C[C@@H]1N[C@@H]12 [Mitomycin C]										very visible dead tissue surrounding the bleb
O=C[C@@H](O)[C@@H](O)[C@H](O)[C@H](O)COP(=O)(O)O [mannose-6-phosphate, reference compound]	19 µM									
